Measured values as given in patent publication US20090241205A1, “METHOD FOR IDENTIFYING CRMP MODULATORS” (priority 2006, published 2009).
“Also recorded” adds a separate entry of the source.

What was measured:
[1] = tested on: neural derivates of murine embryonal stem cells; assay: NMDA excitotoxic insult, survival of neural derivates of murine embryonal stem cells (calcium imaging); assay type: cell-based; details: 200 μM NMDA; for survival rate after excitotoxic insult: 100 μM compound, NMDA alone 15.6% (16%)
CRMP-2 = target: T1, CRMP-2 (Rattus norvegicus, UniProt P47942); assay: biological pull-down (Affinity Fishhook) with biotinylated affinity reagents in rat brain; assay type: binding; details: biotinyl affinity reagent
T1 construct: from tissue; host or cells: rat brain (extract/fractions)
Method: Biological pull-down experiments (“Affinity Fishhook”) were performed by incubating a set of four Lacosamide-related affinity-reagents with biotinyl-moieties (R)—N-Benzyl-2-acetamido-6-[Nε-(biotinyl)-2-isothiocynato-6-aminohexanamido]-aminohexanamide((R)-7), (S)—N-Benzyl-2-acetamido-6-[Nε-(biotinyl)-2-isothiocynato-6-aminohexanamido]-aminohexanamide((S)-7), (R)—N-{3-[Nε-(biotinyl)-2-isothiocynato-6-aminohexanamide]-benzyl}-2-acetamido-3-methoxypropion-amide((R)-34) and (R)—N-{4-[Nε-(biotinyl)-2-isothiocynato-6-aminohexanamide]-benzyl}-2-acetamido-3-methoxypropion-amide((R)-35) to rat brain.
(a) The pattern of affinity captured proteins is completely different from raw extracts and controls and the protein is consistently captured under a variety of conditions.

[2] = tested on: hippocampal primary cells; assay: axon growth in hippocampal primary cells (Tau-1 immunofluorescence); assay type: cell-based; details: for BDNF-induced axonal growth: 200 ng/ml BDNF
Method: It could be shown that the neurotrophins NT3 and BDNF stimulate axonal outgrowth in a primary culture of embryonal hippocampal neurons. Quantification of neurite outgrowth was performed by immunofluorescence microscopy employing an antibody against the axonal marker protein Tau-1.

human CRMP-2 = target: T2, human CRMP-2 (Homo sapiens, UniProt Q16555); assay: competition protein binding with [14C]-labeled lacosamide, crude membranes from CRMP-2 transfected Xenopus oocytes
T2 construct: expressed in transfected cells; host or cells: Xenopus oocytes (crude membranes)
Method: It was therefore the object of the present invention to provide a method of identifying compounds suitable for the prevention, alleviation or/and treatment of diseases or conditions which can be treated by Lacosamide, based on the mode of action of Lacosamide. […] The binding was confirmed in experiments employing heterologously expressed human CRMP-2 in Xenopus oocytes.
Based on the results of the previous study, the present binding curve ranged from 1 to 100 μM (10 concentrations, in triplicates).

With `COC[C@H](NC(C)=O)C(=O)NCc1ccccc1` (single isomer, unassigned) [S-enantiomer of lacosamide] as the molecule, how does the “survival rate after excitotoxic insult” value ([1]; listed as S-enantiomer) read?
Its value is “only a minor effect”.

`CC(=O)N[C@H](CCCCNC(=O)C(CCCCNC(=O)CCCC[C@@H]1SC[C@@H]2NC(=O)N[C@@H]21)N=C=S)C(=O)NCc1ccccc1` (stereo partly drawn) [(R)-7, (R)—N-Benzyl-2-acetamido-6-[Nε-(biotinyl)-2-isothiocynato-6-aminohexanamido]-aminohexanamide] was tested. Which “proteins captured in pull-down” value (CRMP-2) did it give?
Its value is “enrichment of an overlapping set of proteins, including collapsing response mediator protein (CRMP-2)”.

How did the “proteins captured in pull-down” value (CRMP-2) turn out when `COC[C@@H](NC(C)=O)C(=O)NCc1cccc(NC(=O)C(CCCCNC(=O)CCCCC2SCC3NC(=O)NC32)N=C=S)c1` (stereo partly drawn) [(R)-34, (R)—N-{3-[Nε-(biotinyl)-2-isothiocynato-6-aminohexanamide]-benzyl}-2-acetamido-3-methoxypropion-amide] was run?
Its value is “enrichment of an overlapping set of proteins, including collapsing response mediator protein (CRMP-2)”.

With `COC[C@@H](NC(C)=O)C(=O)NCc1ccc(NC(=O)C(CCCCNC(=O)CCCCC2SCC3NC(=O)NC32)N=C=S)cc1` (stereo partly drawn) [(R)-35, (R)—N-{4-[Nε-(biotinyl)-2-isothiocynato-6-aminohexanamide]-benzyl}-2-acetamido-3-methoxypropion-amide] as the molecule, how does the “proteins captured in pull-down” value (CRMP-2) read?
Its value is “enrichment of an overlapping set of proteins, including collapsing response mediator protein (CRMP-2)”.

With `CC(=O)N[C@@H](CCCCNC(=O)C(CCCCNC(=O)CCCC[C@@H]1SC[C@@H]2NC(=O)N[C@@H]21)N=C=S)C(=O)NCc1ccccc1` (stereo partly drawn) [(S)-7, (S)—N-Benzyl-2-acetamido-6-[Nε-(biotinyl)-2-isothiocynato-6-aminohexanamido]-aminohexanamide] as the molecule, how does the “proteins captured in pull-down” value (CRMP-2) read?
The value was “enrichment of an overlapping set of proteins, including collapsing response mediator protein (CRMP-2)”.

Which results are given for `COC[C@@H](NC(C)=O)C(=O)NCc1ccccc1` [Lacosamide, (R)-2-acetamide-N-benzyl-3-methoxypropionamide]?
NT3-induced axonal growth ([2]; 50 ng/ml NT3, 100 μM Lacosamide): significantly decreases; BDNF-induced axonal growth ([2]; 1 μM Lacosamide): significantly decreases; BDNF-induced axonal growth ([2]; 100 μM Lacosamide): significantly decreases; basal axonal outgrowth (axon length) ([2]; Lacosamide 1-200 μM, no neurotrophin): does not significantly change; also recorded: did not significantly change; NT3-induced neuronal outgrowth ([2]; concentration not stated in text (FIG. 2)): attenuated; BDNF-induced neuronal outgrowth ([2]; concentration not stated in text (FIG. 3)): attenuated; survival rate after excitotoxic insult [1]: 71%; neuroprotective effect after pre-incubation with CRMP-2 siRNA ([1]; CRMP-2 siRNA pre-incubation): diminished; Kd (human CRMP-2): < 5 µM; Bmax (human CRMP-2; [14C]-lacosamide, binding curve 1 to 100 μM): about 200 pM/mg; specific binding (human CRMP-2; crude membranes from CRMP-2 transfected Xenopus oocytes, 1 to 100 μM): competitive and specific binding was observed
